Reference: PMC12675575, “A BRET biosensor for measuring uncompetitive engagement of PRMT5 complexes in cells” (Nature Communications, 2025)
Several values for one entry are separate records, joined by “and”; a condition that tells them apart may be missing. Identical values can stand only once.

Target: NanoLuc-PRMT5 co-expressed with WDR77 (Homo sapiens, UniProt O14744)
Test: Live-cell NanoBRET target engagement with BRET probe CBH-002 in HEK293 cells expressing NanoLuc-PRMT5 and unlabeled WDR77
Type: cell-based
Parameters: host or cells: HEK293; key to BRET, CBH-002 + DMSO / BRET, CBH-002 + GSK3326595: mBRET units = acceptor/donor BRET ratio × 1000
Details: for BRET, CBH-002 + DMSO / BRET, CBH-002 + GSK3326595: log([CBH-002]); for BRET, CBH-002 + GSK3326595: 10 µM GSK3326595
Experimental: HEK293 cells (ATCC) were cultured in DMEM (Thermo Fisher) + 10% (v/v) FBS (Seredigm), and HCT116 cells (Horizon Discovery, #PAR-034 and #R02-033) were cultured in McCoy’s 5A (Thermo Fisher) + 10% FBS, with incubation in a humidified, 37 °C/5% CO2 incubator. Cells were split 1–3 days prior to performing experiments and used at roughly 80% confluency. […] Cells were transfected according to the manufacturer’s protocol using FuGENE HD (Promega). NanoLuc fusion DNA was diluted into Transfection Carrier DNA (Promega) in Opti-MEM at a ratio of 1:9 (mass/mass), and FuGENE HD was added at a ratio of 1:3 (μg DNA:μL lipid). […] Formed complexes were combined with cells resuspended to a density of 2 × 10^5 cells/mL in Opti-MEM + 1% FBS at a ratio of 1:20 (vol:vol). […] Cells were seeded at a density of 2 × 10^5 cells/mL in Opti-MEM + 1% FBS in 100 μL (96-well). The BRET probe CBH-002 was prepared first as a 100× stock in 100% DMSO (Sigma) and then diluted to a 20× stock in NanoBRET Tracer Dilution buffer (Promega). Test compounds were prepared as 1000× stocks in 100% DMSO and diluted to 10× stocks in Opti-MEM to prepare working stocks. […] NanoBRET Complete 3x Substrate was prepared by combining Nano-Glo Substrate and Extracellular NanoLuc Inhibitor in Opti-MEM, according to the manufacturer’s protocol (Promega).
BRET ratio values were calculated by dividing the acceptor by the donor signal, and raw BRET was converted to milli-BRET (mBRET) units (mBu) by multiplying by 1000.
EC50 values were obtained by fitting the BRET probe and compound affinity curves to a sigmoidal four-parameter fit model in Graphpad Prism:1 Y=Ymin+Ymax−Ymin/1+10^LogEC50−Xh where h is the Hill Slope.
When normalized BRET was used, mBRET values were normalized using2 NormalizedBRET%=(Y−BRETmin)/BRETmax−BRETmin where y = mBRET in the presence of test compound and BRET probe, BRETmin = mBRET at the highest concentration (saturating) of test compound and BRET probe, and BRETmax = mBRET in the presence of vehicle (DMSO) and BRET probe.
Normalized concentration-response curves showing full competition were fit using a 2-parameter model:3 Y=100/1+10^LogEC50−Xh
In situations where only partial competition was observed, the normalized concentration-response curves were fit using Eq. 1 and where Ymin was constrained to >0.

Chain of NanoLuc-PRMT5 co-expressed with WDR77 (O14744 whole entry): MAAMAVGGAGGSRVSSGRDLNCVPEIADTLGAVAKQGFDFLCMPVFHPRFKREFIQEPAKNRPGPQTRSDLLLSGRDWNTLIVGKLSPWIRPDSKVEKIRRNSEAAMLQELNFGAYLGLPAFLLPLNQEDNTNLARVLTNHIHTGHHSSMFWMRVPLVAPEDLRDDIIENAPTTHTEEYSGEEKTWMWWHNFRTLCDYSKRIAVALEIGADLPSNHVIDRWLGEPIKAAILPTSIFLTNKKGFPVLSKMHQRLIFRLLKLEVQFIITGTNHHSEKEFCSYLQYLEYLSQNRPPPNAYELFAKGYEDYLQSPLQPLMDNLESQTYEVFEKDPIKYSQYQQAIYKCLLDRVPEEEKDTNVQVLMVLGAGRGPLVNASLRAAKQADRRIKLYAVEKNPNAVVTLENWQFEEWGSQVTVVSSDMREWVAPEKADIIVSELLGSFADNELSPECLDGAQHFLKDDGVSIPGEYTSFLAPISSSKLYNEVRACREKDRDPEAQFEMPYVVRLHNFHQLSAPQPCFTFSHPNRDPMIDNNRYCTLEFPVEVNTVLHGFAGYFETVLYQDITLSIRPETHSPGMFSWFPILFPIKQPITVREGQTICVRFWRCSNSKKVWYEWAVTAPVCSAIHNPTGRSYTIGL
Chain of NanoLuc-PRMT5 co-expressed with WDR77 (Q9BQA1 whole entry partner): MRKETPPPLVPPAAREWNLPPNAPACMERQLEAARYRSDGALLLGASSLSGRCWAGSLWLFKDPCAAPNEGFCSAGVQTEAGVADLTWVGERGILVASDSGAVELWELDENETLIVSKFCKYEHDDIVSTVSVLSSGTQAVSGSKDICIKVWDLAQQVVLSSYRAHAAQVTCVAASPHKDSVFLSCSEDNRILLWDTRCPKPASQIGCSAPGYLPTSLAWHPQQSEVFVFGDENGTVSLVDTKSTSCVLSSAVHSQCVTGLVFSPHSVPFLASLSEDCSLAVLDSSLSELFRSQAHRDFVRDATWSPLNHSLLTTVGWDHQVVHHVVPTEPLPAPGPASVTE

BRET, CBH-002 + DMSO (uM 0.00): 772.09 and 714.74 and 694.22 | BRET, CBH-002 + GSK3326595 (uM 0.00): 61.04 and 53.68 and 50.91 | BRET, CBH-002 + DMSO (uM -0.30): 762.09 and 706.06 and 687.42 | BRET, CBH-002 + GSK3326595 (uM -0.30): 39.10 and 34.12 and 31.58 | BRET, CBH-002 + DMSO (uM -0.60): 725.23 and 680.05 and 663.94 | BRET, CBH-002 + GSK3326595 (uM -0.60): 21.81 and 20.23 and 18.49 | BRET, CBH-002 + DMSO (uM -0.90): 664.14 and 629.71 and 617.88 | BRET, CBH-002 + GSK3326595 (uM -0.90): 15.32 and 14.57 and 13.57 | BRET, CBH-002 + DMSO (uM -1.20): 530.53 and 496.08 and 504.63 | BRET, CBH-002 + GSK3326595 (uM -1.20): 11.35 and 11.22 and 10.54 | BRET, CBH-002 + DMSO (uM -1.51): 359.70 and 340.31 and 361.19 | BRET, CBH-002 + GSK3326595 (uM -1.51): 9.43 and 9.45 and 8.97 | BRET, CBH-002 + DMSO (uM -1.81): 238.28 and 223.48 and 233.43 | BRET, CBH-002 + GSK3326595 (uM -1.81): 8.65 and 8.75 and 8.42 | BRET, CBH-002 + DMSO (uM -2.11): 126.25 and 118.03 and 125.67 | BRET, CBH-002 + GSK3326595 (uM -2.11): 8.17 and 8.22 and 7.93 | BRET, CBH-002 + DMSO (uM -2.41): 70.04 and 65.87 and 70.86 | BRET, CBH-002 + GSK3326595 (uM -2.41): 7.94 and 8.15 and 7.70 | BRET, CBH-002 + DMSO (uM -2.71): 39.89 and 37.62 and 39.62 | BRET, CBH-002 + GSK3326595 (uM -2.71): 7.74 and 7.94 and 7.67 | BRET, CBH-002 + DMSO (uM -3.01): 23.90 and 22.68 and 24.07 | BRET, CBH-002 + GSK3326595 (uM -3.01): 7.80 and 7.76 and 7.50 | EC50 (probe titration against 10 µM GSK3326595 or DMSO, live HEK293, WDR77 co-expression, read-out: CBH-002 apparent affinity (EC50)): 33 nM
SMILES: O=C(CCc1ccc2n1[B-](F)(F)[N+]1=C(c3ccc[nH]3)C=CC1=C2)NCCCCC(=O)N1CCC(Nc2cc(C(=O)NC[C@H](O)CN3CCc4ccccc4C3)ncn2)CC1 [CBH-002]
